This is an account of results in patent US20170333560A1, “Pharmaceutical Composition That Includes A Neutral Carrier Treated With Energy And Related Methods Of Treatment” (priority 2016, published 2017).

The test system of data set [1] is pseudoneurotic disorder in patients with organic brain disease. In words: Study of pseudoneurotic disorder in organic brain disease (anxiety levels, Hamilton scale). The format is in vivo, human. How it is done:
(§1) A study was conducted to examine the efficacy of the claimed drug, formulated as a water solution (liquid dosage form) of the activated (potentized) energy-treated carrier, obtained by multiple consecutive dilution of the initial matrix solution in an aqueous-alcoholic diluent, combined with external mechanical impact—shaking of each resulting dilution, to a degree of 100^200, equivalent to a centesimal (C200) homeopathic dilution (wherein the energy treatment of the initial neutral carrier has been accomplished by exposing it to an electric current caused by a difference of potentials being applied to electrodes placed in the initial liquid carrier and which is proportional in amplitude to an amplified combined, summed signal, formed by summing the resultant signals—biopotential differences of individual referential derivations recorded in five healthy donors using the internationally recognized 10-20 system, which involves 19 active recording electrodes placed in regular positions all over the scalp and one reference electrode located on the ear-lobe)—further referred to as AP drug—in treating pseudoneurotic disorder in patients with organic brain disease. […]

Data set [2] relates to scopolamine-induced amnesia in male albino Wistar rats. Put plainly: Scopolamine-induced amnesia for passive avoidance conditioning. The format is in vivo, rat. How it is done:
A study was conducted to evaluate the nootropic effect of the claimed drug, formulated as a water solution (liquid dosage form) of the activated (potentized) energy-treated carrier, obtained by multiple consecutive dilution of the initial matrix solution in an aqueous-alcoholic diluent, combined with external mechanical impact—shaking of each resulting dilution, to a degree of 100^200, equivalent to a centesimal (C200) homeopathic dilution (wherein the energy treatment of the initial liquid carrier has been accomplished by exposing it to an electric current caused by a difference of potentials being applied to electrodes placed in the initial liquid carrier and which is proportional in amplitude to an amplified combined, summed signal, formed by summing the resultant signals—biopotential differences of individual referential derivations recorded in five healthy donors using the internationally recognized 10-20 system, which involves 19 active recording electrodes placed in regular positions all over the scalp and one reference electrode located on the ear-lobe)—further referred to as AP drug, using standard experimental approaches—by examining the test drug's antiamnestic effects in scopolamine-induced amnesia for passive avoidance conditioning in sexually mature rats. A total of 36 male albino Wistar rats were used for the study.
For amnesia induction, 15 minutes prior to passive avoidance training, the animals were administered a single intraperitoneal dose (2 mg/kg) of a muscarinic receptor antagonist—scopolamine.
AP drug was administered to 12 rats intragastrically, at 2.5 ml/kg daily, prior to training (1 hour before the start of the experiment), immediately after training, 24 hours post training, and 1 hour prior to the passive avoidance recall test. […]
On the memory recall test, the rats' behavior was evaluated by examining: latency time taken by test animals to first enter the dark compartment and total time spent therein over a certain time period.
The conditioning of passive avoidance behavior was as follows: On day 1, the animals were trained to stay in a shuttle box, which consisted of a large, 300×300×250 mm, white illuminated compartment (with transparent walls) and a smaller, 150×150×180 mm, black dark compartment with an electrical grid floor. […] For 3 minutes, the total times of the rat's stay in the small compartment and latency before moving in were recorded. […]
The data gathered were recorded as the mean (M) and standard error of the mean (SEM). […] The results of examining the rats' memory recall were analyzed for statistical significance with the Wilcoxon test. […]

The test system of data set [3] is children with clinical signs and symptoms of a hyperkinetic disorder (HD). In words: Comparative study versus piracetam in children with hyperkinetic disorder (SNAP-IV, TOVA, fine motor skills). The format is in vivo, human. As to conditions: for TOVA Commission errors, % / TOVA Omission errors, % / TOVA Response time: after two months. The text has this:
The study included 57 children aged from 6 to 9 years (40 boys and 17 girls), who were nursery/preschool attendants and primary school students.
The inclusion criteria were: 1. Children with clinical signs and symptoms of a hyperkinetic disorder (HD) meeting the ICD-10 criteria (F 90); 2. Age range: 6 to 9 years; 3. At least a medium IQ score (90 points) on the Wechsler Intelligence Scale.
The study excluded children with behavior disturbances related to other mental disorders. Children with HD signs and symptoms who were allocated to the group of test treatment (n=30) received AP drug as a monotherapy, at 2 tablets 3 times daily for 2 months.
This assessment was repeated following two months of treatment with AP drug (test group) and piracetam (control group). The scores obtained were compared with the normative rating results and statistically analyzed (Table 11).
The computer-based psychophysiological TOVA assessment involved three sets of tests measuring inattention (omission errors), impulsivity (commission errors), and speed of information processing (response time). The baseline measurements of HD children were compared with those obtained in the test group (AP drug) and in the control group (piracetam) after two months of treatment.

In data set [4] the test system is male albino Wistar rats. In words: Porsolt forced swimming test. In kind it is in vivo, rat. The following applies: compared to controls; single intragastric dose. The protocol: as §1, with “evaluate” for “examine”, “antidepressant effect” for “efficacy”, “summed up” for “summed”, “drug, using standard experimental approaches—by examining animals' depression-like behavior (behavioral despair)” for “drug—in treating pseudoneurotic disorder”, “the Porsolt forced swimming test and Nomura's model employing forced-rotating-wheel swim test.” for “patients with organic brain disease.”

The test system of data set [5] is male albino Wistar rats. Put plainly: Nomura forced-rotating-wheel swim test. The format is in vivo, rat. As to conditions: compared to controls; single intragastric dose; 10 minutes. The protocol: as §1, with “evaluate” for “examine”, “antidepressant effect” for “efficacy”, “summed up” for “summed”, “drug, using standard experimental approaches—by examining animals' depression-like behavior (behavioral despair)” for “drug—in treating pseudoneurotic disorder”, “the Porsolt forced swimming test and Nomura's model employing forced-rotating-wheel swim test.” for “patients with organic brain disease.”

`O=C1CN=C(c2ccccc2Cl)c2cc(Br)ccc2N1` [phenazepam]: the Hamilton scale score amounted to 31.7±1.5 in data set [1] (after treatment) and 32.8±1.4 in data set [1] (baseline score).
As for `NC(=O)CN1CCCC1=O` [piracetam], in data set [2] (Memory recall), the “Latency to enter the aversive compartment” value is 53.71 s and the “Time spent in the black compartment” value stood at 13.11 s. Further, in data set [2] (Training), the “Latency to enter the aversive compartment” value is 11.07 s and the “Time spent in the black compartment” value is 21.1 s. Besides, in data set [3] (2 months), the “Children with increased disinhibition/excitability” value came to 11.1% and the “Children with sleep problems” value was determined as 26%. For the same compound, in data set [3] (First section), the “TOVA Commission errors, %” value is 12.5 ± 3.2%; the “TOVA Omission errors, %” value was 13.6 ± 1.4 %; the “TOVA Response time” value is given as 736 ± 83 ms. Also, in data set [3] (Second section), the “TOVA Commission errors, %” value came to 21.1 ± 2.7%; the “TOVA Omission errors, %” value is reported as 17.2 ± 2.8 %; the “TOVA Response time” value is on record as 656 ± 79 ms. For the same compound, the “Total score for fine motor skills” value in data set [3] (after treatment completion) was found to be 1.62 ± 0.16. For the same compound, in data set [3] (after two months of treatment), the “SNAP-IV Attention problems” value came to 2.48 ± 0.12, the “SNAP-IV Hyperactivity” value is reported as 2.41 ± 0.10 and the “SNAP-IV Impulsivity” value was determined as 2.28 ± 0.22.
Consider `CN(C)CCC=C1c2ccccc2CCc2ccccc21` [reference compound, amitriptyline], for which the “Reduction of immobility time” value in data set [4] is 56%. Moreover, the “Increase of number of wheel rotations” value in data set [5] was 67%.
